The record followed here is patent US4983328A, “N-(4-(3-aminopropyl)aminobutyl)-2-(ω-gua nidino-fatty-acid-amido(-2-substituted-ethanamide, salt thereof, and process for preparation thereof” (Bristol-Myers Company, priority 1981, dated 1991).

Structures are written as SMILES. ≈ marks a conversion by molar mass, not a printed value.

Series [1] in a line: cumulative toxicity in mice (maximum tolerated dose, once a day for 6 consecutive days). The conditions noted are these: mouse, in vivo, ip, i.p. once a day for 6 consecutive days, total dose, read-out: Maximum Tolerated Dose (total dose not causing death). The method, then:
(§1) In Table 8 median lethal doses (LD50) of typical compounds of this invention are shown, measured in mice upon single intraperitoneal administration, as well as maximum tolerated doses in terms of total dose when a fixed amount per unit body weight was administered intraperitoneally to mice once a day for 6 consecutive days.
**Maximum value of the total dose not causing death when a fixed amount
per unit body weight is administered to mice once a day for 6 consecutive

Series [2] concerns mouse leukemia L-1210 cells. The experiment in a line: growth inhibitory activity to cancer cells in vitro (L-1210, 48 hours). The format is cell-based. The conditions noted are these: for inhibition at 1.25 µg/mL: L1210, 1.25 mcg/ml; for inhibition at 2.5 µg/mL: L1210, 2.5 mcg/ml; for inhibition at 5 µg/mL: L1210, 5 mcg/ml; for inhibition at 10 µg/mL: L1210, 10 mcg/ml; for inhibition at 20 µg/mL: L1210, 20 mcg/ml; for IC50: L1210, L-1210 cells, read-out: 50% inhibitory concentration; for inhibition at 40 µg/mL: L1210, 40 mcg/ml; for inhibition at 80 µg/mL: L1210, 80 mcg/ml. The procedure:
DBA/2 mice were implanted with 10^5 mouse leukemia L-1210 cells. The ascites collected asceptically from the mice after 4 days of feeding was washed three times with physiological saline to obtain L-1210 cells, which was then suspended in RPMI 1640 culture medium [G. E. Moore, Journal of the American Medical Association, Vol. 199, 519 (1967); H. J. Morton, In Vitro, Vol. 6, 89 (1970)] to which 10% fetal calf serum and 5 μM 2-mercaptoethanol had been added, and the resulting suspension was diluted to 5×10^4 L-1210 cells per 0.9 ml. A microplate carrying 0.9 ml of the cell suspension and 0.1 ml of the culture medium containing the sample being tested was kept in a carbon dioxide incubator at 37° C. After 48 hours of cultivation, the number of cells was measured by means of a Coulter Counter (Coulter Electronics, Inc., U.S.A.) to obtain the growth inhibition (%)=(1--T/C )×100=[1-(number of grown cells in medium containing sample/(number of grown cells in control medium)]×100. The 50% growth inhibitory concentration was calculated from the values of growth inhibition at varied sample concentrations. The results of tests on typical compounds of this invention for the growth inhibition of L-1210 cells were as shown in Table 6.

The test system of a further series is mouse leukemia L-1210. Description: therapeutic effect on implanted cancer in mice (L-1210, survival over 30 days). In kind it is in vivo, mouse (BDF1). The conditions noted are these: L1210, ip, 720 h, 6 days; for responders at 0.78 mg/kg / response vs control in vivo at 0.78 mg/kg: 0.78 mg/kg/day i.p.; for responders at 1.56 mg/kg / response vs control in vivo at 1.56 mg/kg: 1.56 mg/kg/day i.p.; for responders at 3.13 mg/kg / response vs control in vivo at 3.13 mg/kg: 3.13 mg/kg/day i.p.; for responders at 6.25 mg/kg / response vs control in vivo at 6.25 mg/kg: 6.25 mg/kg/day i.p.; for responders at 12.5 mg/kg / response vs control in vivo at 12.5 mg/kg: 12.5 mg/kg/day i.p.; for responders at 25 mg/kg / response vs control in vivo at 25 mg/kg: 25 mg/kg/day i.p.; for responders at 50 mg/kg / response vs control in vivo at 50 mg/kg: 50 mg/kg/day i.p. An excerpt:
BDF1 strain male mice (5 weeks old) were each inoculated intraperitoneally with 10^5 mouse leukemia L-1210 cells and treated once a day by intraperitoneal injection with a test compound dissolved in physiological saline for 6 consecutive days beginning from the day of inoculation. The mice were then observed for 30 days to determine the rate of prolongation of survival period=100×T/C=100×(average survival days of treated group)/(average survival days of control group).

The nature of series [3]: acute toxicity in mice (single intraperitoneal administration). The conditions noted are these: mouse, in vivo, ip; mice, single i.p.; read-out: LD50 (median lethal dose on single administration). The procedure:
as §1
*Median lethal dose on single administration.

The mark [4] stands for this setting: read-out: Growth inhibition (%), (1-T/C) × 100.
Where [5] appears, read: read-out: Number of mice survived for 30 days (converted).
The mark [6] stands for this setting: read-out: Prolongation of survival period (%), T/C × 100.

Regarding `N=C(N)NCCCCCCCCC(=O)NC(O)C(=O)NCCCCNCCCN` (stereo not shown) [Compound 6, N-[4-(3-aminopropyl)aminobutyl]-2-(9-guanidinononanamido)-2-hydroxyethanamide], the MTD in series [1] was greater than 75 mg/kg. Further, in series [2] (setting [4]), the inhibition at 1.25 µg/mL came to 38%, the inhibition at 2.5 µg/mL stood at 40.3%, the inhibition at 5 µg/mL stood at 45.5% and the inhibition at 10 µg/mL amounted to 50.3%. For the same compound, the inhibition at 20 µg/mL in series [2] (setting [4]) came out at 57.5%. For the same compound, the IC50 in series [2] was determined as 8 µg/mL (≈ 19.3 µM). The responders at 0.2 mg/kg in the series with mouse leukemia L-1210 (0.20 mg/kg/day i.p., read-out: Number of mice survived for 30 days (converted)) is 50%. Moreover, the response vs control in vivo at 0.2 mg/kg with mouse leukemia L-1210 (0.20 mg/kg/day i.p., read-out: Prolongation of survival period (%), T/C × 100) is greater than 354%. Besides, the responders at 0.39 mg/kg in the series on mouse leukemia L-1210 (0.39 mg/kg/day i.p., read-out: Number of mice survived for 30 days (converted)) was 50%. Further, the response vs control in vivo at 0.39 mg/kg with mouse leukemia L-1210 (0.39 mg/kg/day i.p., read-out: Prolongation of survival period (%), T/C × 100) was greater than 383%. Further, in the series with mouse leukemia L-1210 (setting [5]), the responders at 0.78 mg/kg is 100%, the responders at 1.56 mg/kg is 75%, the responders at 3.13 mg/kg was 50% and the responders at 6.25 mg/kg is 100%. Further, in the series on mouse leukemia L-1210 (setting [5]), the responders at 12.5 mg/kg was 100%, the responders at 25 mg/kg was 0% and the responders at 50 mg/kg was 0%. Further, in the series with mouse leukemia L-1210 (setting [6]), the response vs control in vivo at 0.78 mg/kg is greater than 429%, the response vs control in vivo at 1.56 mg/kg was greater than 393%, the response vs control in vivo at 3.13 mg/kg was greater than 386% and the response vs control in vivo at 6.25 mg/kg was greater than 429%. For the same compound, in the series on mouse leukemia L-1210 (setting [6]), the response vs control in vivo at 12.5 mg/kg was greater than 429%, the response vs control in vivo at 25 mg/kg is 0% and the response vs control in vivo at 50 mg/kg was 0%. The LD50 in series [3] lay in the range of 12.5 to 25 mg/kg.

As for `N=C(N)NCCCCC=CC(=O)NC(O)C(=O)NCCCCNCCCN` (stereo not shown) [Compound 16, N-[4-(3-aminopropyl)aminobutyl]-2-(7-guanidino-2-heptenamido)-2-hydroxyethanamide], the MTD in series [1] is greater than 150 mg/kg. In addition, in series [2] (setting [4]), the inhibition at 2.5 µg/mL stood at 22.6%, the inhibition at 5 µg/mL stood at 31.1%, the inhibition at 10 µg/mL is 32.5% and the inhibition at 20 µg/mL turned out to be 56.3%. In series [2], the IC50 was 17 µg/mL (≈ 44.1 µM). Further, in the series with mouse leukemia L-1210 (setting [5]), the responders at 0.78 mg/kg is 0%, the responders at 1.56 mg/kg was 0%, the responders at 3.13 mg/kg is 50% and the responders at 6.25 mg/kg is 50%. Also, in the series on mouse leukemia L-1210 (setting [5]), the responders at 12.5 mg/kg is 50%, the responders at 25 mg/kg is 0% and the responders at 50 mg/kg is 0%. Besides, in the series on mouse leukemia L-1210 (setting [6]), the response vs control in vivo at 0.78 mg/kg was 129%, the response vs control in vivo at 1.56 mg/kg came out at 233%, the response vs control in vivo at 3.13 mg/kg is greater than 343% and the response vs control in vivo at 6.25 mg/kg is greater than 350%. Moreover, in the series on mouse leukemia L-1210 (setting [6]), the response vs control in vivo at 12.5 mg/kg was greater than 354%, the response vs control in vivo at 25 mg/kg amounted to 236% and the response vs control in vivo at 50 mg/kg was determined as 0%. For the same compound, the LD50 in series [3] is 25 to 50 mg/kg.

Regarding `COC(NC(=O)CCCCCNC(=N)N)C(=O)NCCCCNCCCN` (stereo not shown) [Compound 8, N-[4-(3-aminopropyl)aminobutyl]-2-(6-guanidinohexanamido)-2-methoxyethanamide], the MTD in series [1] was greater than 150 mg/kg. Moreover, in series [2] (setting [4]), the inhibition at 5 µg/mL worked out at 33.2%, the inhibition at 10 µg/mL was found to be 38.1%, the inhibition at 20 µg/mL came out at 46.8% and the inhibition at 40 µg/mL worked out at 53.5%. In addition, the inhibition at 80 µg/mL in series [2] (setting [4]) worked out at 66.3%. Also, the inhibition at 160 µg/mL in series [2] (L1210, 160 mcg/ml, read-out: Growth inhibition (%), (1-T/C) × 100) amounted to 88.2%. Also, in series [2], the IC50 amounted to 28 µg/mL (≈ 72.3 µM). Besides, the LD50 in series [3] was in the range of 25 to 50 mg/kg.

For `CCOC(NC(=O)CCCCCCNC(=N)N)C(=O)NCCCCNCCCN` (stereo not shown) [Compound 12, N-[4-(3-aminopropyl)aminobutyl]-2-(7-guanidinoheptanamido)-2-ethoxyethanamide], in series [1], the MTD is greater than 75 mg/kg. In addition, in series [2] (setting [4]), the inhibition at 2.5 µg/mL was 21.5%, the inhibition at 5 µg/mL stood at 31.1%, the inhibition at 10 µg/mL worked out at 38.4% and the inhibition at 20 µg/mL was 47.3%. In addition, in series [2] (setting [4]), the inhibition at 40 µg/mL worked out at 58.6% and the inhibition at 80 µg/mL came out at 73.5%. For the same compound, the IC50 in series [2] stood at 21 µg/mL (≈ 50.5 µM). In series [3], the LD50 is 12.5 to 25 mg/kg.

Take `N=C(N)NCCCCCC(=O)NC(O)C(=O)NCCCCNCCCN` (stereo not shown) [Compound 3, N-[4-(3-aminopropyl)aminobutyl]-2-(6-guanidinohexanamido)-2-hydroxyethanamide]: the MTD in series [1] is greater than 300 mg/kg. Further, in series [2] (setting [4]), the inhibition at 1.25 µg/mL amounted to 20.6%, the inhibition at 2.5 µg/mL came out at 36.7%, the inhibition at 5 µg/mL was 64.2% and the inhibition at 10 µg/mL turned out to be 81.6%. In addition, the inhibition at 20 µg/mL in series [2] (setting [4]) came to 86.7%. In addition, the IC50 in series [2] was determined as 3.7 µg/mL (≈ 9.91 µM). Besides, in series [3], the LD50 is greater than 50 mg/kg.

As for `N=C(N)NCCCCCC=CC(=O)NC(O)C(=O)NCCCCNCCCN` (stereo not shown) [Compound 17, N-[4-(3-aminopropyl)aminobutyl]-2-(8-guanidino-2-octenamido)-2-hydroxyethanamide], the MTD in series [1] was greater than 75 mg/kg. Also, in series [2] (setting [4]), the inhibition at 1.25 µg/mL stood at 2.1%, the inhibition at 2.5 µg/mL came out at 4.5%, the inhibition at 5 µg/mL worked out at 13.3% and the inhibition at 10 µg/mL came out at 16.5%. Also, in series [2] (setting [4]), the inhibition at 20 µg/mL is 33.7% and the inhibition at 40 µg/mL was 52.5%. In addition, the IC50 in series [2] was determined as 70 µg/mL (≈ 175 µM). Besides, the LD50 in series [3] was 12.5 to 25 mg/kg.

`N=C(N)NCCCCCC(O)CC(=O)NC(O)C(=O)NCCCCNCCCN` (stereo not shown) [Compound 20, N-[4-(3-aminopropyl)aminobutyl]-2-(8-guanidino-3-hydroxyoctanamido)-2-hydroxyethanamide]: the MTD in series [1] is greater than 300 mg/kg. Besides, in series [2] (setting [4]), the inhibition at 1.25 µg/mL came to 17.2%, the inhibition at 2.5 µg/mL came to 20.1%, the inhibition at 5 µg/mL stood at 28.9% and the inhibition at 10 µg/mL stood at 30.7%. In addition, in series [2] (setting [4]), the inhibition at 20 µg/mL worked out at 45.7%. Further, the IC50 in series [2] is 27 µg/mL (≈ 64.7 µM). Moreover, the LD50 in series [3] was greater than 50 mg/kg.

Regarding `N=C(N)NCCCCC(=O)NC(O)C(=O)NCCCCNCCCN` (stereo not shown) [Compound 2, N-[4-(3-aminopropyl)aminobutyl]-2-(5-guanidinopentanamido)-2-hydroxyethanamide], the MTD in series [1] is greater than 300 mg/kg. Also, in series [2] (setting [4]), the inhibition at 1.25 µg/mL worked out at 9.6%, the inhibition at 2.5 µg/mL was found to be 30.5%, the inhibition at 5 µg/mL was 46.9% and the inhibition at 10 µg/mL was found to be 69.5%. In series [2] (setting [4]), the inhibition at 20 µg/mL stood at 77.6%, the inhibition at 40 µg/mL is 79.6% and the inhibition at 80 µg/mL turned out to be 79.6%. In addition, the IC50 in series [2] is 5 µg/mL (≈ 13.9 µM). Besides, in series [3], the LD50 was greater than 50 mg/kg.
